{
  "source": "paper PMC8528301",
  "about": "(PLoS ONE, 2021)",
  "key": {"[1]": {"test": "Plasma DEX concentrations on discontinuous oral DEX regimen in drinking water (Fig 3)", "assay_type": "in vivo, mouse", "details": "for concentration at 3.5 day / concentration at 10.5 day / concentration at 17.5 day: C57BL/6, mouse, oral, 8 mg/L, Dexamethasone conc; for observed systemic (plasma) concentrations of DEX, range: mice on the discontinuous DEX regimen", "procedure": "1 g/L of tetracycline (Sigma-Aldrich Inc, St. Louis, MO, USA) was added during both phases. Assuming that mice drink 5 mL of water per day, the dose they receive would be 1.6–2 mg/kg/day. […] At the end of in vivo procedures, all plasma samples were transferred from dry ice and stored at –80°C until analysis.\nSidak’s multiple comparison test (**p<0.01, ****p<0.0001) was used to further analyze the effect of vitamin D status at each time point."}, "[2]": {"test_system": "PXR", "details": "cited from earlier work"}, "[3]": {"test": "DEX single oral gavage plasma pharmacokinetics (NLME modeling);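 also: plasma concentration-time data analysed by nonlinear mixed-effects modeling in Monolix with SAEM estimation, models built on apparent clearance, distribution volume and absorption rate constant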", "details": "for DV (Dex oral gavage PK raw data): individual mice", "experimental": "Blood was collected via saphenous/retro-orbital vein at time points: 0.25, 0.75, 0.5, 1, 1.5, 2, 4, 8, 16 hours after treatment. Three sets of mice were used for this experiment, where set 1 was sampled at 2,4,8 hr; set 2 at 0.25, 0.75, 1.5 hr; set 3 at 0.5, 1 and 16 hr. Samples were centrifuged at 10,000 rpm for 2 minutes, plasma was removed and stored at -80°C until further analysis.\nBriefly, parameters and the Fisher Information Matrix (FIM) were estimated using the stochastic approximation expectation maximization (SAEM) algorithm, and the final log-likelihood estimated with importance sampling, all using the default Monolix initial settings, except that 1000 iterations were permitted for estimation of FIM using stochastic approximation. A variety of models were fit to the respective compound’s Ct data, parameterized using apparent clearances, volumes of distribution, and absorption rate constant as needed. […] A log-normal inter-individual and inter-occasion parameter distribution was assumed on selected supported parameters, with both on- and off-diagonal elements of parameter covariance matrices tested. Additive and/or proportional error models were tested and implemented as supported. Beal’s M3 method was used to fit any data that were below the LLOQ or above the upper limit of the assay range [20]. […] Additionally, Wald test P values were outputted for each covariate effect by the Monolix software.\nAdditionally, Wald test P values were outputted for each covariate effect by the Monolix software."}},
  "note": "Where “and” joins values, the source holds several entries; their conditions need not be identical. Identical values can stand only once.",
  "data": [
    {"smiles": "C[C@@H]1C[C@H]2[C@@H]3CCC4=CC(=O)C=C[C@]4(C)[C@@]3(F)[C@@H](O)C[C@]2(C)[C@@]1(O)C(=O)CO", "note": "[DEX, dexamethasone]", "values": [
      {"measurement": "estimated Cgut (gut concentration)", "setting": "[1]; discontinuous DEX in drinking water, assuming mice drink 200–400 μl/hr", "value": "7 to 10 µM and 7.6 to 10.1 µM"},
      {"measurement": "concentration at 3.5 day", "setting": "[1]; female, plasma, avg, VD3 deficient, D3.5, n=5", "value": 78, "unit": "nM"},
      {"measurement": "concentration at 10.5 day", "setting": "[1]; female, plasma, avg, VD3 deficient, D10.5, n=4", "value": 63, "unit": "nM"},
      {"measurement": "concentration at 17.5 day", "setting": "[1]; female, plasma, avg, VD3 deficient, D17.5, n=4", "value": 58.5, "unit": "nM"},
      {"measurement": "concentration at 3.5 day", "setting": "[1]; female, plasma, avg, VD3 sufficient, D3.5, n=5", "value": 99.3, "unit": "nM"},
      {"measurement": "concentration at 10.5 day", "setting": "[1]; female, plasma, avg, VD3 sufficient, D10.5, n=4", "value": 52.7, "unit": "nM"},
      {"measurement": "concentration at 17.5 day", "setting": "[1]; female, plasma, avg, VD3 sufficient, D17.5, n=5", "value": 38.7, "unit": "nM"},
      {"measurement": "concentration at 10.5 day", "setting": "[1]; female, plasma, individual mouse, VD3 deficient (GCD), D10.5", "value": 58.6, "unit": "nM"},
      {"measurement": "concentration at 3.5 day", "setting": "[1]; female, plasma, individual mouse, VD3 sufficient (MRE), D3.5", "value": 95.6, "unit": "nM"},
      {"measurement": "concentration at 10.5 day", "setting": "[1]; female, plasma, individual mouse, VD3 sufficient (MRE), D10.5", "value": 49.9, "unit": "nM"},
      {"measurement": "concentration at 3.5 day", "setting": "[1]; male, plasma, avg, plasma, male, VD3 deficient, day 3.5, n=8", "value": 31.7, "unit": "nM"},
      {"measurement": "concentration at 10.5 day", "setting": "[1]; male, plasma, avg, plasma, male, VD3 deficient, day 10.5, n=13", "value": 25.3, "unit": "nM"},
      {"measurement": "concentration at 17.5 day", "setting": "[1]; male, plasma, avg, plasma, male, VD3 deficient, day 17.5, n=13", "value": 13.1, "unit": "nM"},
      {"measurement": "concentration at 3.5 day", "setting": "[1]; male, plasma, avg, plasma, male, VD3 sufficient, day 3.5, n=11", "value": 12.4, "unit": "nM"},
      {"measurement": "concentration at 10.5 day", "setting": "[1]; male, plasma, avg, plasma, male, VD3 sufficient, day 10.5, n=11", "value": 18, "unit": "nM"},
      {"measurement": "concentration at 17.5 day", "setting": "[1]; male, plasma, avg, plasma, male, VD3 sufficient, day 17.5, n=11", "value": 13.3, "unit": "nM"},
      {"measurement": "observed systemic (plasma) concentrations of DEX, range", "setting": "[1]", "value": "2.6 to 201.5", "unit": "nM"},
      {"measurement": "observed systemic (plasma) concentrations of DEX, range", "setting": "[1]; listed as Dexamethasone", "value": "2 to 200", "unit": "nM"},
      {"measurement": "Dexamethasone conc, individual mouse", "setting": "[1]; plasma, female, VD3 deficient (GCD), D3.5", "value": "88.42 nM and 34.10 nM and 126.21 nM and 104.66 nM and 36.85 nM"},
      {"measurement": "Dexamethasone conc, individual mouse", "setting": "[1]; plasma, female, VD3 deficient (GCD), D10.5", "value": "55.47 nM and 71.15 nM and 66.95 nM"},
      {"measurement": "Dexamethasone conc, individual mouse", "setting": "[1]; plasma, female, VD3 deficient (GCD), D17.5", "value": "84.72 nM and 78.40 nM and 26.56 nM and 44.39 nM"},
      {"measurement": "Dexamethasone conc, individual mouse", "setting": "[1]; plasma, female, VD3 sufficient (MRE), D3.5", "value": "94.88 nM and 116.14 nM and 126.22 nM and 63.45 nM"},
      {"measurement": "Dexamethasone conc, individual mouse", "setting": "[1]; plasma, female, VD3 sufficient (MRE), D10.5", "value": "50.92 nM and 57.26 nM"},
      {"measurement": "Dexamethasone conc, individual mouse", "setting": "[1]; plasma, female, VD3 sufficient (MRE), D17.5", "value": "24.99 nM and 23.28 nM and 21.33 nM and 61.18 nM and 62.62 nM"},
      {"measurement": "Dexamethasone conc, individual mouse", "setting": "[1]; plasma, male, VD3 deficient (GCD), 3.5 Days, discontinuous DEX in drinking water", "value": "28.49 nM and 21.78 nM and 23.16 nM and 14.22 nM and 52.94 nM and 69.07 nM and 12.19 nM"},
      {"measurement": "Dexamethasone conc, individual mouse", "setting": "[1]; plasma, male, VD3 deficient (GCD), 10.5 Days", "value": "24.64 nM and 18.60 nM and 35.12 nM and 50.14 nM and 22.77 nM and 19.09 nM and 13.20 nM and 32.61 nM and 4.50 nM and 20.98 nM and 51.76 nM and 9.92 nM"},
      {"measurement": "Dexamethasone conc, individual mouse", "setting": "[1]; plasma, male, VD3 deficient (GCD), 17.5 Days", "value": "7.03 nM and 9.03 nM and 37.95 nM and 11.09 nM and 12.27 nM and 10.43 nM and 10.75 nM and 8.20 nM and 7.99 nM and 10.52 nM and 14.43 nM and 17.77 nM"},
      {"measurement": "Dexamethasone conc, avg", "setting": "[1]; plasma, male, VD3 deficient, day 3.5, n=8", "value": 31.70, "unit": "nM"},
      {"measurement": "Dexamethasone conc, individual mouse", "setting": "[1]; plasma, male, VD3 sufficient (MRE), 3.5 Days", "value": "10.97 nM and 6.41 nM and 7.05 nM and BLQ (BLQ = BELOW the LLOQ, lower lmit of quantification = 5 nM dexamethasone) and 3.62 nM and 34.11 nM"},
      {"measurement": "Dexamethasone conc, individual mouse", "setting": "[1]; plasma, male, VD3 sufficient (MRE), 10.5 Days", "value": "56.24 nM and 2.95 nM and 2.63 nM and 10.01 nM and 12.14 nM and BLQ (BLQ = BELOW the LLOQ, lower lmit of quantification = 5 nM dexamethasone) and 34.37 nM and 7.89 nM"},
      {"measurement": "Dexamethasone conc, individual mouse", "setting": "[1]; plasma, male, VD3 sufficient (MRE), 17.5 Days", "value": "9.70 nM and 6.19 nM and 17.34 nM and 10.75 nM and 11.40 nM and 11.09 nM and 17.17 nM and 6.62 nM and 29.23 nM"},
      {"measurement": "EC50", "setting": "[2]; printed in Fig 9, ref Kliewer SA, et al. Cell. 1998", "value": 30, "unit": "µM"},
      {"measurement": "Kd", "setting": "[2]; relatively weak PXR agonist, no reference given, read-out: Kd as PXR agonist", "value": "~30", "unit": "µM"},
      {"measurement": "estimated Cgut (gut concentration)", "setting": "[3]; single oral gavage", "value": 200, "unit": "µM"},
      {"measurement": "higher CL/F in males vs females", "setting": "[3]; single oral gavage 2 mg/kg DEX phosphate, regardless of VD3 status", "value": "~ 25%"},
      {"measurement": "lower AUC values in males vs females", "setting": "[3]; single oral gavage 2 mg/kg dexamethasone phosphate, 14 weeks", "value": "approximately 25%"},
      {"measurement": "apparent oral clearance (CL/F), male vs female", "setting": "[3]; single oral gavage, regardless of VD3 status", "value": 1.26, "unit": "fold"},
      {"measurement": "DV (Dex oral gavage PK raw data)", "setting": "[3]; time 0.25, SEX:F, VD3_DEF:0", "value": "907.64 and 982.88"},
      {"measurement": "DV (Dex oral gavage PK raw data)", "setting": "[3]; time 0.25, SEX:M, VD3_DEF:0", "value": "359.52 and 381.14 and 918.28 and 295.91"},
      {"measurement": "DV (Dex oral gavage PK raw data)", "setting": "[3]; time 0.5, SEX:F, VD3_DEF:0", "value": "300.45 and 875.91 and 827.78 and 1011.08 and 796.28"},
      {"measurement": "DV (Dex oral gavage PK raw data)", "setting": "[3]; time 0.5, SEX:M, VD3_DEF:0", "value": "854.61 and 443.3 and 391.17 and 812.36 and 581.49"},
      {"measurement": "DV (Dex oral gavage PK raw data)", "setting": "[3]; time 0.75, SEX:F, VD3_DEF:0", "value": "593 and 696.57 and 716.27"},
      {"measurement": "DV (Dex oral gavage PK raw data)", "setting": "[3]; time 0.75, SEX:M, VD3_DEF:0", "value": "319 and 407.15 and 712.45 and 358.52"},
      {"measurement": "DV (Dex oral gavage PK raw data)", "setting": "[3]; time 1, SEX:F, VD3_DEF:0", "value": "323.98 and 614.7 and 559.39 and 858.7 and 572.77"},
      {"measurement": "DV (Dex oral gavage PK raw data)", "setting": "[3]; time 1, SEX:M, VD3_DEF:0", "value": "871.76 and 446.29 and 284.95 and 564.36 and 379.97"},
      {"measurement": "DV (Dex oral gavage PK raw data)", "setting": "[3]; time 1.5, SEX:F, VD3_DEF:0", "value": "400.31 and 458.1 and 520.89"},
      {"measurement": "DV (Dex oral gavage PK raw data)", "setting": "[3]; time 1.5, SEX:M, VD3_DEF:0", "value": "262.55 and 317.69 and 754.41 and 324.39"},
      {"measurement": "DV (Dex oral gavage PK raw data)", "setting": "[3]; time 2, SEX:F, VD3_DEF:0", "value": "620.12 and 492.72 and 552.22 and 715.36"},
      {"measurement": "DV (Dex oral gavage PK raw data)", "setting": "[3]; time 2, SEX:M, VD3_DEF:0", "value": "450.54 and 344.89 and 388.67 and 378.66 and 784.19"},
      {"measurement": "DV (Dex oral gavage PK raw data)", "setting": "[3]; time 2, SEX:M, VD3_DEF:1", "value": "453.95 and 476.24"},
      {"measurement": "DV (Dex oral gavage PK raw data)", "setting": "[3]; time 4, SEX:F, VD3_DEF:0", "value": "375.42 and 312.44 and 291.92 and 312.42 and 297.86"},
      {"measurement": "DV (Dex oral gavage PK raw data)", "setting": "[3]; time 4, SEX:M, VD3_DEF:0", "value": "215.15 and 191.38 and 191.07 and 239.97 and 623.74"},
      {"measurement": "DV (Dex oral gavage PK raw data)", "setting": "[3]; time 4, SEX:M, VD3_DEF:1", "value": "214.6 and 240.73 and 185.34"}
    ]}
  ]
}
